The target in the test is BTK (Homo sapiens, UniProt Q06187). The test is described as follows: BTK Enzyme Assay. The test is classed as biochemical. The following applies: 1 uM compound; read-out: BTK (% inh @ 1 uM). As for the experimental part:
The following TABLE II lists compounds representative of the invention and their activity in BTK assays. In these assays, the following grading was used: A: >30% inhibition @1 μM; B: <30% inhibition @1 μM.
Chain of BTK (Q06187 whole entry): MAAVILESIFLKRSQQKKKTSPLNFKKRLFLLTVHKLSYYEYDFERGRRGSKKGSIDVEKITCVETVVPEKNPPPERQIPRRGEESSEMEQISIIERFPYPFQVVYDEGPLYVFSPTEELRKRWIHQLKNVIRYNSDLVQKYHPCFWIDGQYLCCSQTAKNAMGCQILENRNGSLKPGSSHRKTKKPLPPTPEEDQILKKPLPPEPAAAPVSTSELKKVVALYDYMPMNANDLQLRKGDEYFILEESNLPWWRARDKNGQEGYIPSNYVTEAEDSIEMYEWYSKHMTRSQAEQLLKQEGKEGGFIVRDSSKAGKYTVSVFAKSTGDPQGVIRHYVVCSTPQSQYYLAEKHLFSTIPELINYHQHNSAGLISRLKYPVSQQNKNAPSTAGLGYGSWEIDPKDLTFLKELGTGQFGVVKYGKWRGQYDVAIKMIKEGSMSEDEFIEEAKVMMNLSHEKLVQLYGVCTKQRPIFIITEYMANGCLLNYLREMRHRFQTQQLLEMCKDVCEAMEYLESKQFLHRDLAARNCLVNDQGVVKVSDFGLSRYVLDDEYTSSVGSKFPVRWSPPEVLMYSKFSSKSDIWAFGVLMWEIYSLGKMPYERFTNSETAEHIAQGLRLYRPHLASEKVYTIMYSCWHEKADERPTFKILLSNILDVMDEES
`C=CC(=O)Nc1cc(Nc2nc(-c3c[nH]c4ccccc34)c3sccc3n2)c(OC)cc1N1CCC(NC)CC1` [Compound 3, N-[5-[[4-(1H-indol-3-yl)thieno[3,2-d]pyrimidin-2-yl]amino]-4-methoxy-2-[4-(methylamino)-1-piperidyl]phenyl]prop-2-enamide]: the inhibition at 1 µM was > 30%. For `C=CC(=O)Nc1cc(NC2=NC(c3cccc(N(C)C)c3)C3SC=CC3=N2)c(OC)cc1N(C)C` (stereo not shown) [Compound 4, N-[2-(dimethylamino)-5-[[4-[3-(dimethylamino)phenyl]-4,4a-dihydrothieno[3,2-d]pyrimidin-2-yl]amino]-4-methoxy-phenyl]prop-2-enamide], the inhibition at 1 µM is > 30%. Take `C=CC(=O)Nc1cc(NC2=NC(c3cccc(NC)c3)C3SC=CC3=N2)c(OC)cc1N1CCN(C)CC1` (stereo not shown) [Compound 7, N-[4-methoxy-5-[[4-[3-(methylamino)phenyl]-4,4a-dihydrothieno[3,2-d]pyrimidin-2-yl]amino]-2-(4-methylpiperazin-1-yl)phenyl]prop-2-enamide]: the inhibition at 1 µM is > 30%.

Consider `C=CC(=O)Nc1cc(NC2=NC(c3cccc(N(C)C)c3)C3SC=CC3=N2)c(OC)cc1N(C)CCN1CCOCC1` (stereo not shown) [Compound 8, N-[5-[[4-[3-(dimethylamino)phenyl]-4,4a-dihydrothieno[3,2-d]pyrimidin-2-yl]amino]-4-methoxy-2-[methyl(2-morpholinoethyl)amino]phenyl]prop-2-enamide], for which the inhibition at 1 µM was > 30%. For `C=CC(=O)Nc1cc(NC2=NC(c3cccc(NC(C)(C)C)c3)C3SC=CC3=N2)c(OC)cc1N1CCOCC1` (stereo not shown) [Compound 11, N-[5-[[4-[3-(tert-butylamino)phenyl]-4,4a-dihydrothieno[3,2-d]pyrimidin-2-yl]amino]-4-methoxy-2-morpholino-phenyl]prop-2-enamide] the value was > 30%; for `C=CC(=O)Nc1cc(NC2=NC(c3cccc(N(C)C)c3)C3SC=CC3=N2)c(OC)cc1OCCN(C)C` (stereo not shown) [Compound 12, N-[2-[2-(dimethylamino)ethoxy]-5-[[4-[3-(dimethylamino)phenyl]-4,4a-dihydrothieno[3,2-d]pyrimidin-2-yl]amino]-4-methoxy-phenyl]prop-2-enamide], > 30%; for `C=CC(=O)Nc1cc(NC2=NC(c3cccc(NC)c3)C3SC=CC3=N2)c(OC)cc1OCCN(C)C` (stereo not shown) [Compound 13, N-[2-[2-(dimethylamino)ethoxy]-4-methoxy-5-[[4-[3-(methylamino)phenyl]-4,4a-dihydrothieno[3,2-d]pyrimidin-2-yl]amino]phenyl]prop-2-enamide], > 30%.

As for `C=CC(=O)Nc1cc(NC2=NC(c3cccc(NC)c3)C3SC=CC3=N2)c(OC)cc1OCCN1CCCCC1` (stereo not shown) [Compound 15, N-[4-methoxy-5-[[4-[3-(methylamino)phenyl]-4,4a-dihydrothieno[3,2-d]pyrimidin-2-yl]amino]-2-[2-(1-piperidyl)ethoxy]phenyl]prop-2-enamide], the inhibition at 1 µM was > 30%. In the case of `C=CC(=O)Nc1cc(NC2=NC(c3cccc(N(C)C)c3)C3SC=CC3=N2)c(OC)cc1N1CCC(C(=O)N(C)C)CC1` (stereo not shown) [Compound 16, 1-[4-[[4-[3-(dimethylamino)phenyl]-4,4a-dihydrothieno[3,2-d]pyrimidin-2-yl]amino]-5-methoxy-2-(prop-2-enoylamino)phenyl]-N,N-dimethyl-piperidine-4-carboxamide], the inhibition at 1 µM is > 30%.

`C=CC(=O)Nc1cc(NC2=NC(c3cccc(NC)c3)C3SC=CC3=N2)c(OC)cc1N1CCC(C(=O)N(C)C)CC1` (stereo not shown) [Compound 17, 1-[5-methoxy-4-[[4-[3-(methylamino)phenyl]-4,4a-dihydrothieno[3,2-d]pyrimidin-2-yl]amino]-2-(prop-2-enoylamino)phenyl]-N,N-dimethyl-piperidine-4-carboxamide]: the inhibition at 1 µM is < 30%. For `C=CC(=O)Nc1cc(NC2=NC(c3cccc(N)c3)C3SC=CC3=N2)c(OC)cc1N1CCN(C)CC1` (stereo not shown) [Compound 19, N-[5-[[4-(3-aminophenyl)-4,4a-dihydrothieno[3,2-d]pyrimidin-2-yl]amino]-4-methoxy-2-(4-methylpiperazin-1-yl)phenyl]prop-2-enamide] the value was < 30%. For `C=CC(=O)Nc1cc(NC2=NC(c3cccc(OC)c3)C3SC=CC3=N2)c(OC)cc1N1CCC(N(C)C)CC1` (stereo not shown) [Compound 20, N-[2-[4-(dimethylamino)-1-piperidyl]-4-methoxy-5-[[4-(3-methoxyphenyl)-4,4a-dihydrothieno[3,2-d]pyrimidin-2-yl]amino]phenyl]prop-2-enamide] the value was < 30%.

`C=CC(=O)Nc1cc(Nc2nc(-c3c[nH]c4ccccc34)c3sccc3n2)c(OC)cc1N1CCN(C)CC1` [Compound 21, N-[5-[[4-(1H-indol-3-yl)thieno[3,2-d]pyrimidin-2-yl]amino]-4-methoxy-2-(4-methylpiperazin-1-yl)phenyl]prop-2-enamide]: the inhibition at 1 µM is > 30%. For `C=CC(=O)Nc1cc(Nc2nc(-c3cn(C)c4ccccc34)c3sccc3n2)c(OC)cc1N1CCN(C)CC1` [Compound 22, N-[4-methoxy-5-[[4-(1-methylindol-3-yl)thieno[3,2-d]pyrimidin-2-yl]amino]-2-(4-methylpiperazin-1-yl)phenyl]prop-2-enamide] the value was > 30%.

For the compound `C=CC(=O)Nc1cc(Nc2nc(-c3c[nH]c4ccccc34)c3sccc3n2)c(OC)cc1N1CCOCC1` [Compound 23, N-[5-[[4-(1H-indol-3-yl)thieno[3,2-d]pyrimidin-2-yl]amino]-4-methoxy-2-morpholino-phenyl]prop-2-enamide], the inhibition at 1 µM is > 30%. As to `C=CC(=O)Nc1cc(Nc2nc(-c3ccc(NC)cc3)c3sccc3n2)c(OC)cc1N1CCN(C)CC1` [Compound 25, N-[4-methoxy-5-[[4-[4-(methylamino)phenyl]thieno[3,2-d]pyrimidin-2-yl]amino]-2-(4-methylpiperazin-1-yl)phenyl]prop-2-enamide], the inhibition at 1 µM is < 30%. In the case of `C=CC(=O)Nc1cc(Nc2nc(-c3ccc(NC(C)(C)C)cc3)c3sccc3n2)c(OC)cc1N1CCN(C)CC1` [Compound 27, N-[5-[[4-[4-(tert-butylamino)phenyl]thieno[3,2-d]pyrimidin-2-yl]amino]-4-methoxy-2-(4-methylpiperazin-1-yl)phenyl]prop-2-enamide] it was > 30%; in that of `C=CC(=O)Nc1cc(NC2=NC(c3cccc(OC)c3)C3C(=N2)C=CN3C)c(OC)cc1N1CCC(N(C)C)CC1` (stereo not shown) [Compound 28, N-[2-[4-(dimethylamino)-1-piperidyl]-4-methoxy-5-[[4-(3-methoxyphenyl)-5-methyl-4,4a-dihydropyrrolo[3,2-d]pyrimidin-2-yl]amino]phenyl]prop-2-enamide], < 30%; in that of `C=CC(=O)Nc1cc(Nc2nc(-c3ccccc3NC)c3sccc3n2)c(OC)cc1N1CCN(C)CC1` [Compound 29, N-[4-methoxy-5-[[4-[2-(methylamino)phenyl]thieno[3,2-d]pyrimidin-2-yl]amino]-2-(4-methylpiperazin-1-yl)phenyl]prop-2-enamide], < 30%. As to `C=CC(=O)Nc1cc(Nc2nc(-c3ccccc3NC)c3sccc3n2)c(OC)cc1N(C)CCN(C)C` [Compound 31, N-[2-[2-(dimethylamino)ethyl-methyl-amino]-4-methoxy-5-[[4-[2-(methylamino)phenyl]thieno[3,2-d]pyrimidin-2-yl]amino]phenyl]prop-2-enamide], the inhibition at 1 µM is < 30%. For `C=CC(=O)Nc1cc(Nc2nc(-c3ccccc3)c3ccsc3n2)c(OC)cc1N(C)CCN(C)C` [Compound 32, N-[2-[2-(dimethylamino)ethyl-methyl-amino]-4-methoxy-5-[(4-phenylthieno[2,3-d]pyrimidin-2-yl)amino]phenyl]prop-2-enamide] the value was > 30%; for `C=CC(=O)Nc1cc(Nc2nc(-c3cccc(NC)c3)c3ccsc3n2)c(OC)cc1N(C)CCN(C)C` [Compound 33, N-[2-[2-(dimethylamino)ethyl-methyl-amino]-4-methoxy-5-[[4-[3-(methylamino)phenyl]thieno[2,3-d]pyrimidin-2-yl]amino]phenyl]prop-2-enamide], < 30%; for `C=CC(=O)Nc1cc(Nc2nc(-c3cn(C)c4ccccc34)c3sccc3n2)c(OC)cc1OCCN1CCOCC1` [Compound 34, N-[4-methoxy-5-[[4-(1-methylindol-3-yl)thieno[3,2-d]pyrimidin-2-yl]amino]-2-(2-morpholinoethoxy)phenyl]prop-2-enamide], < 30%. For the compound `C=CC(=O)Nc1cc(Nc2nc(-c3cn(C)c4ccccc34)c3sccc3n2)c(OC)cc1N(C)C` [Compound 38, N-[2-(dimethylamino)-4-methoxy-5-[[4-(1-methylindol-3-yl)thieno[3,2-d]pyrimidin-2-yl]amino]phenyl]prop-2-enamide], the inhibition at 1 µM was > 30%.

For `C=CC(=O)Nc1cc(Nc2nc(-c3ccc(NC)cc3)c3sccc3n2)c(OC)cc1N(C)CC` [Compound 39, N-[2-[ethyl(methyl)amino]-4-methoxy-5-[[4-[4-(methylamino)phenyl]thieno[3,2-d]pyrimidin-2-yl]amino]phenyl]prop-2-enamide], the inhibition at 1 µM is > 30%. In the case of `C=CC(=O)Nc1cc(Nc2nc(-c3ccccc3)c3ccsc3n2)c(OC)cc1N(C)CC` [Compound 40, N-[2-[ethyl(methyl)amino]-4-methoxy-5-[(4-phenylthieno[2,3-d]pyrimidin-2-yl)amino]phenyl]prop-2-enamide] it was < 30%; in that of `C=CC(=O)Nc1cc(Nc2nc(-c3ccccc3)c3ccsc3n2)c(OC)cc1N1CCN(C)CC1` [Compound 42, N-[4-methoxy-2-(4-methylpiperazin-1-yl)-5-[(4-phenylthieno[2,3-d]pyrimidin-2-yl)amino]phenyl]prop-2-enamide], < 30%.

For `C=CC(=O)Nc1cc(Nc2nc(-c3cccc4ccn(C)c34)c3sccc3n2)c(OC)cc1N1CCN(C)CC1` [Compound 44, N-[4-methoxy-5-[[4-(1-methylindol-7-yl)thieno[3,2-d]pyrimidin-2-yl]amino]-2-(4-methylpiperazin-1-yl)phenyl]prop-2-enamide], the inhibition at 1 µM was > 30%.

The values above are taken from patent publication US10844074B2, “Heterocycle compounds and uses thereof” (ZHEJIANG JIANFENG-YIEN BIOTECHNOLOGY CO., LTD., priority 2015, dated 2020).
